# According to US20080145412A1, “METHOD OF PROMOTING ANGIOGENESIS” (Acologix, Inc., priority 2006, published 2008):
# Assays:
# FGF2 [1] = test: Angiogenesis antibody array (TranSignal Mouse Angiogenesis Antibody Array) of lysates from AC-100 treated calvariae; assay type: cell-based; details: calvaria lysates
# Description: To investigate whether AC-100 modulates bone anabolic factors that are sequestered within the bone matrix we have analysed lysates from AC-100 treated calvariae.
# Initial experiments analysed the lysates using an angiogenesis antibody array (TranSignal Mouse Angiogenesis Antibody Array, Panomics).
# FGF-2 = FGF-2 production in mouse calvaria organ cultures (FIG. 1); assay type: cell-based; details: tissue lysates and conditioned media
# Procedure: AC-100 at both 1 and 10 uM concentrations increased the production of FGF-2 in mouse calvaria organ cultures. Increases were found in both tissue lysates and in the conditioned media of cultures treated with AC-100.
# FGF2 [2] = test: ELISA timecourse of FGF2 in calvaria organ culture lysates and conditioned media (FIG. 2A); assay type: cell-based, mouse
# Procedure: (§1) To quantitatively measure the increase in FGF2 in AC-100 treated bones, lysates were harvested over a comprehensive timecourse (30 min, 1 hr, 2 hr, 6 hr, 24 hr, 48 hr, 72 hr, day 4, day 5) and analysed for FGF2 and other bone anabolic factors using ELISA. […] Consistent with our previous findings AC-100 increased PGE2 in the conditioned media and TGFbeta and Fibronectin in both the conditioned media and bone lysate.
# (§2) In addition, this response roughly correlated with expression of PGE-2 following AC-100 treatment (2B), TGF-β (2C) and Fibronectin (2D). Increases in PGE2 in the same cultures were observed from […].
# PGE2 = PGE2 in murine calvarial organ culture (FIG. 2B); assay type: cell-based, mouse
# Procedure: (§3) We have previously reported AC-100 treatment increases PGE2, TGFbeta and Fibronectin levels in the conditioned media from the murine calvarial organ culture. Histological evaluation of the bones indicated AC-100 increased the amount of new bone formation and numbers of osteoblasts.
# as §1, §2
# TGFbeta = TGFbeta in murine calvarial organ culture (FIG. 2C); assay type: cell-based, mouse
# Procedure: as §3, §1, §2
# Fibronectin = Fibronectin in murine calvarial organ culture (FIG. 2D); assay type: cell-based, mouse
# Procedure: as §3, §1, §2
# [3] = tested on: murine calvarial organ culture; test: Histological evaluation of bones from murine calvarial organ culture; assay type: cell-based, mouse; details: histological evaluation of the bones
# Description: as §3
# BMP2 [4] = test: Synergy with BMP2 in vitro; assay type: cell-based; details: combination with BMP2, in vitro
# Description: (§4) BMP2, a potent osteogenic agent is also a strong stimulator of angiognenesis.
# BMP2 [5] = test: Synergy with BMP2 in vivo, ossicle formation
# Description: as §4
# bone healing = test: Bone healing in diverse animal models; assay type: in vivo
# Description: Angiogenesis is a crucial part of bone healing.
# [6] = conditioned media, murine calvarial organ culture, previously reported
sequence,measurement,setting,value
TDLQERGDNDISPFSGDGQPFKD [AC-100],FGF2 signal at 2 hr,FGF2 [1]; 2 hr,increased
same,FGF2 signal 24 hr through day 3,FGF2 [1]; 24 hr through day 3,the same as the control bones
same,FGF2 signal at day 5,"FGF2 [1]; day 5, control signal significantly reduced",still strong
same,"FGF2 signal, overall course",FGF2 [1]; versus control bones,earlier and prolonged increase
same,production of FGF-2,FGF-2; AC-100 1 uM,increased
same,production of FGF-2,FGF-2; AC-100 10 uM,increased
same,FGF2 in conditioned media,"FGF2 [2]; ELISA, conditioned media",not detectable
same,FGF2 in bone lysates,"FGF2 [2]; ELISA, lysates, 30 min through day 5",potent increase
same,production of FGF-2 over time (FIG. 2A),FGF2 [2]; approximately 1 hr to 5 days,increased
same,PGE2 in conditioned media,"PGE2; ELISA, conditioned media",increased
same,PGE2 levels,PGE2; [6],increases
same,PGE2 over time (FIG. 2B),"PGE2; same cultures, days 2-7",Increases
same,TGFbeta in bone lysate,"TGFbeta; ELISA, bone lysate",increased
same,TGFbeta in conditioned media,"TGFbeta; ELISA, conditioned media",increased
same,TGFbeta levels,TGFbeta; [6],increases
same,Fibronectin in bone lysate,"Fibronectin; ELISA, bone lysate",increased
same,Fibronectin in conditioned media,"Fibronectin; ELISA, conditioned media",increased
same,Fibronectin levels,Fibronectin; [6],increases
same,amount of new bone formation,[3],increased
same,numbers of osteoblasts,[3],increased
same,activity with BMP2 in vitro,BMP2 [4],synergistic activities
same,osteons and blood vessels in ossicles,BMP2 [5]; BMP2 and AC-100 co-treatment,contain mature osteons with new blood vessels
same,structure of ossicles formed,BMP2 [5]; BMP2 and AC-100 co-treatment versus BMP2 alone,more mature structure
same,activity with BMP2 in vivo,"BMP2 [5]; combination with BMP2, in vivo",synergistic activities
same,healing,bone healing,earlier healing
same,new bone formed,bone healing,increased amount and better quality of new bone
